The text below walks through data of US8304419B2, “Chemical compounds” (priority 2007, dated 2012).

The test system of this assay is HIV wild type (WTRVA). In words: HeLa cell assay, wild type virus (WTRVA). The class given is cell-based, HIV-1. Set-up: scale not given here. The following applies: Human immunodeficiency virus 1, HeLa.
The mark [1] stands for this setting: HeLa cell assay, read-out: IC50 against WTRVA.
The mark [2] stands for this setting: HeLa-CD4-LTR-β-gal cells, wild type virus, read-out: WTRVA activity level.

Where a name gives a salt, the structure may show the parent alone. Read-outs that look alike come from different tables or passages of the source. A value given as a limit tells only on which side of the number the result lay.

Consider `Cc1nc(Cl)c(C(=O)NCc2ccc(Cl)c(Oc3cc(Br)cc(C#N)c3)c2F)[nH]1` [Example 299, N-({3-[(3-bromo-5-cyanophenyl)oxy]-4-chloro-2-fluorophenyl}methyl)-4-chloro-2-methyl-1H-imidazole-5-carboxamide], for which the IC50 under setting [1] is < 10 nM. As to `N#Cc1cc(Cl)cc(Oc2c(Br)ccc(CNC(=O)c3[nH]cnc3Cl)c2F)c1` [Example 378, N-({4-bromo-3-[(3-chloro-5-cyanophenyl)oxy]-2-fluorophenyl}methyl)-4-chloro-1H-imidazole-5-carboxamide], the IC50 under setting [1] was < 10 nM.

For the compound `COc1ccc(C(=O)NCc2ccc(Cl)c(Oc3cc(Cl)cc(C#N)c3)c2F)cn1` [Example 42, N-({4-chloro-3-[(3-chloro-5-cyanophenyl)oxy]-2-fluorophenyl}methyl)-6-(methyloxy)-3-pyridinecarboxamide], the IC50 under setting [2] fell in the range of 10 to 1000 nM.

Take `N#Cc1cc(Cl)cc(Oc2c(Cl)ccc(CNC(=O)c3ccno3)c2F)c1` [Example 93, N-({4-chloro-3-[(3-chloro-5-cyanophenyl)oxy]-2-fluorophenyl}methyl)-5-isoxazolecarboxamide]: the IC50 under setting [2] was 10 to 1000 nM. Turning to `CN(C)Cc1cc(C#N)cc(Oc2c(Cl)ccc(CNC(=O)c3[nH]cnc3Cl)c2F)c1` [Example 311, 4-chloro-N-{[4-chloro-3-({3-cyano-5-[(dimethylamino)methyl]phenyl}oxy)-2-fluorophenyl]methyl}-1H-imidazole-5-carboxamide trifluoroacetate], the IC50 under setting [1] was < 10 nM.

`Cc1nc(Cl)c(C(=O)NCc2ccc(Cl)c(Oc3cc(Cl)cc(C#N)c3Cl)c2F)[nH]1` [Example 306, 4-chloro-N-({4-chloro-3-[(2,5-dichloro-3-cyanophenyl)oxy]-2-fluorophenyl}methyl)-2-methyl-1H-imidazole-5-carboxamide trifluoroacetate]: under setting [1], the IC50 is < 10 nM. Consider `Cc1nc(Cl)c(C(=O)NCc2ccc(Cl)c(Oc3cc(C#N)cc(C4CC4)n3)c2F)[nH]1` [Example 273, 4-Chloro-N-({4-chloro-3-[(4-cyano-6-cyclopropyl-2-pyridinyl)oxy]-2-fluorophenyl}methyl)-2-methyl-1H-imidazole-5-carboxamide], for which the IC50 under setting [1] was < 10 nM. As to `Cc1cc(Br)cc2cc(C(=O)NCc3ccc(Cl)c(Oc4cc(Cl)cc(C#N)c4)c3F)[nH]c12` [Example 30, 5-bromo-N-({4-chloro-3-[(3-chloro-5-cyanophenyl)oxy]-2-fluorophenyl}methyl)-7-methyl-1H-indole-2-carboxamide], under setting [2], the IC50 was in the range of 10 to 1000 nM. The same measure, in the same setting: with `CN1CCCC1CCOc1ccc2[nH]c(C(=O)NCc3ccc(Cl)c(Oc4cc(Cl)cc(C#N)c4)c3F)cc2c1` (stereo not drawn) [Example 104, N-({4-chloro-3-[(3-chloro-5-cyanophenyl)oxy]-2-fluorophenyl}methyl)-5-{[2-(1-methyl-2-pyrrolidinyl)ethyl]oxy}-1H-indole-2-carboxamide] the figure was < 10 nM. Regarding `CCc1cc(C#N)cc(Oc2c(Cl)ccc(CNC(=O)c3[nH]c(C)nc3Cl)c2F)n1` [Example 274, 4-Chloro-N-({4-chloro-3-[(4-cyano-6-ethyl-2-pyridinyl)oxy]-2-fluorophenyl}methyl)-2-methyl-1H-imidazole-5-carboxamide], the IC50 under setting [1] was < 10 nM. For the compound `CC(C)c1nc(Cl)c(C(=O)NCc2ccc(Cl)c(Oc3cc(Cl)cc(C#N)c3)c2F)[nH]1` [Example 135, 4-chloro-N-({4-chloro-3-[(3-chloro-5-cyanophenyl)oxy]-2-fluorophenyl}methyl)-2-(1-methylethyl)-1H-imidazole-5-carboxamide trifluoroacetate], the IC50 under setting [2] is < 10 nM.

`Cc1nnsc1C(=O)NCc1ccc(Cl)c(Oc2cc(Cl)cc(C#N)c2)c1F` [Example 91, N-({4-chloro-3-[(3-chloro-5-cyanophenyl)oxy]-2-fluorophenyl}methyl)-4-methyl-1,2,3-thiadiazole-5-carboxamide]: the IC50 under setting [2] was < 10 nM.

Take `N#Cc1cc(Cl)cc(Oc2c(Cl)ccc(CNC(=O)c3cc4ccc([N+](=O)[O-])cc4[nH]3)c2F)c1` [Example 31, N-({4-chloro-3-[(3-chloro-5-cyanophenyl)oxy]-2-fluorophenyl}methyl)-6-nitro-1H-indole-2-carboxamide]: the IC50 under setting [2] was 10 to 1000 nM.

For the compound `CN(C)c1ccc2[nH]c(C(=O)NCc3ccc(Cl)c(Oc4cc(Cl)cc(C#N)c4)c3F)cc2c1` [Example 126, N-({4-chloro-3-[(3-chloro-5-cyanophenyl)oxy]-2-fluorophenyl}methyl)-5-(dimethylamino)-1H-indole-2-carboxamide], the IC50 under setting [2] is < 10 nM. Still for that read-out and setting: as for `COc1ccc(C(=O)NCc2ccc(Cl)c(Oc3cc(Cl)cc(C#N)c3)c2)c(OC)c1` [Example 6, N-({4-chloro-3-[(3-chloro-5-cyanophenyl)oxy]phenyl}methyl)-2,4-bis(methyloxy)benzamide], the figure is 10 to 1000 nM. Still for that read-out and setting: as for `N#Cc1cc(Cl)cc(Oc2c(Cl)ccc(CNC(=O)c3cc4ccc(Cl)cc4[nH]3)c2F)c1` [Example 110, 6-chloro-N-({4-chloro-3-[(3-chloro-5-cyanophenyl)oxy]-2-fluorophenyl}methyl)-1H-indole-2-carboxamide], the figure is 10 to 1000 nM. On the same count and under the same terms, with `N#Cc1cc(Cl)cc(Oc2c(Cl)ccc(CNC(=O)c3cc4ccc(C#N)cc4[nH]3)c2F)c1` [Example 79, N-({4-chloro-3-[(3-chloro-5-cyanophenyl)oxy]-2-fluorophenyl}methyl)-6-cyano-1H-indole-2-carboxamide trifluoroacetate] the figure was < 10 nM; with `COc1ccc(C(=O)NCc2ccc(Cl)c(Oc3cc(Cl)cc(C#N)c3)c2F)c(C)c1` [Example 17, N-({4-chloro-3-[(3-chloro-5-cyanophenyl)oxy]-2-fluorophenyl}methyl)-2-methyl-4-(methyloxy)benzamide], 10 to 1000 nM. Consider `N#Cc1cc(Cl)cc(Oc2c(Cl)ccc(CNC(=O)c3cc4cc(OCC(CO)CO)ccc4[nH]3)c2F)c1` [Example 22, N-({4-chloro-3-[(3-chloro-5-cyanophenyl)oxy]-2-fluorophenyl}methyl)-5-{[3-hydroxy-2-(hydroxymethyl)propyl]oxy}-1H-indole-2-carboxamide], for which the IC50 under setting [2] is < 10 nM. Still for that read-out and setting: as for `COc1cc2cc(C(=O)NCc3ccc(Cl)c(Oc4cc(Cl)cc(C#N)c4)c3F)[nH]c2cn1` [Example 46, N-({4-chloro-3-[(3-chloro-5-cyanophenyl)oxy]-2-fluorophenyl}methyl)-5-(methyloxy)-1H-pyrrolo[2,3-c]pyridine-2-carboxamide trifluoroacetate], the figure is < 10 nM. As to `CS(=O)(=O)c1ccc(C(=O)NCc2ccc(Cl)c(Oc3cc(Cl)cc(C#N)c3)c2F)cc1` [Example 92, N-({4-chloro-3-[(3-chloro-5-cyanophenyl)oxy]-2-fluorophenyl}methyl)-4-(methylsulfonyl)benzamide], the IC50 under setting [2] is 10 to 1000 nM.
